Laboratory results published in US20110297235A1, “USE OF TRIARYLAMINE DERIVATIVES AS HOLE-CONDUCTING MATERIALS IN ORGANIC SOLAR CELLS AND ORGANIC SOLAR CELLS CONTAINING SAID TRIARYLAMINE DERIVATIVES” (BASF SE, priority 2009, published 2011).
In brackets after ≈: the same amount, converted by molar mass.

Legend:
[1] = Glass transition temperature Tg and morphology M by means of DSC; assay type: physicochemical
[2] = Decomposition temperature Td by means of TGA; assay type: physicochemical
physchem = settings: organic solvent or mixture

Row | SMILES | glass transition temperature Tg [1] [°C] | decomposition temperature Td [2] [°C] | solubility (physchem; solubility L in chlorobenzene) [mg/mL] | solubility (physchem; solubility in Ethyl acetate) [mg/mL] | solubility (physchem; solubility in Tetrahydrofuran) [mg/mL] | solubility (physchem; solubility in Toluene) [mg/mL] | solubility (physchem; solubility in Anisole) [mg/mL]
1 | CCCCCCC1(CCCCCC)c2cc(N(c3ccc(OCC(CC)CCCC)cc3)c3ccc(-c4ccc(N(c5ccc(OC)cc5)c5ccc(OC)cc5)cc4)cc3)ccc2-c2ccc(N(c3ccc(OCC(CC)CCCC)cc3)c3ccc(-c4ccc(N(c5ccc(OC)cc5)c5ccc(OC)cc5)cc4)cc3)cc21 (centres unmarked) [ID569] | 47 | 440 | 400 to 800 (≈ 261 to 522 mM) |  |  |  | 
2 | COc1ccc(N(c2ccc(OC)cc2)c2ccc(-c3ccc(N(c4ccc(OC)cc4)c4ccc5c(c4)c4cc(N(c6ccc(OC)cc6)c6ccc(-c7ccc(N(c8ccc(OC)cc8)c8ccc(OC)cc8)cc7)cc6)ccc4n5-c4ccccc4)cc3)cc2)cc1 [ID522] | 158 | 450 | 900 to 1400 (≈ 723 to 1120 mM) | 600 to 1200 (≈ 482 to 964 mM) | 400 to 600 (≈ 321 to 482 mM) | 490 to 980 (≈ 394 to 787 mM) | 
3 | COc1ccc(N(c2ccc(OC)cc2)c2ccc(-c3ccc(N(c4ccc(OC)cc4)c4ccc(-c5ccc(N(c6ccc(OC)cc6)c6ccc(-c7ccc(N(c8ccc(OC)cc8)c8ccc(OC)cc8)cc7)cc6)c(C)c5)cc4C)cc3)cc2)cc1 [ID631] | 134 | 440 | > 1300 | 700 to 1400 (≈ 591 to 1180 mM) | 1000 to 2000 (≈ 845 to 1690 mM) | 500 to 1000 (≈ 422 to 845 mM) | 500 to 1000 (≈ 422 to 845 mM)
4 | CCCCC(CC)COc1ccc(N(c2ccc(-c3ccc(N(c4ccc(OC)cc4)c4ccc(OC)cc4)cc3)cc2)c2ccc(-c3ccc(N(c4ccc(OCC(CC)CCCC)cc4)c4ccc(-c5ccc(N(c6ccc(OC)cc6)c6ccc(OC)cc6)cc5)cc4)cc3)cc2)cc1 (centres unmarked) [ID568] | 65 | 360 | > 650 |  |  |  | 
5 | COc1ccc(N(c2ccc(OC)cc2)c2ccc(-c3ccc(N(c4ccc(-c5ccc(N(c6ccc(-c7ccc(N(c8ccc(OC)cc8)c8ccc(OC)cc8)cc7)cc6)c6ccc7c(c6)C(C)(C)c6ccccc6-7)cc5)cc4)c4ccc5c(c4)C(C)(C)c4ccccc4-5)cc3)cc2)cc1 [ID369] | 154 | 460 | 300 to 450 (≈ 226 to 339 mM) | 140 to 280 (≈ 105 to 211 mM) | 100 to 150 (≈ 75.3 to 113 mM) | 140 to 170 (≈ 105 to 128 mM) | 
6 | CCOc1ccc(N(c2ccc(C3=CCC(N(c4ccc(OC)cc4)c4ccc(-c5ccc(N(c6ccc(OC)cc6)c6ccc(-c7ccc(N(c8ccc(OCC)cc8)c8cccc9ccccc89)cc7)cc6)cc5)cc4)C=C3)cc2)c2cccc3ccccc23)cc1 (centres unmarked) [ID565] | 143 | 450 | > 900 | < 40 | > 850 | 400 to 800 (≈ 326 to 653 mM) | > 1000
7 | COc1ccc(N(c2ccc(OC)cc2)c2ccc(-c3ccc(N(c4ccc(-c5ccc(N(c6ccc(-c7ccc(N(c8ccc(OC)cc8)c8ccc(OC)cc8)cc7)cc6)c6ccc(C(C)(C)C)cc6)cc5)cc4)c4ccc(C(C)(C)C)cc4)cc3)cc2)cc1 [ID368] | 154 | 460 | 500 to 1000 (≈ 414 to 828 mM) | > 380 | 180 to 360 (≈ 149 to 298 mM) | > 240 | 
8 | COc1ccc(N(c2ccc(OC)cc2)c2ccc(-c3ccc(N(c4ccccc4)c4ccc(-c5ccc(N(c6ccccc6)c6ccc(-c7ccc(N(c8ccc(OC)cc8)c8ccc(OC)cc8)cc7)cc6)cc5)cc4)cc3)cc2)cc1 [ID321] | 143 | 460 | 900 to 1150 (≈ 822 to 1050 mM) | 15 (≈ 13.7 mM) | > 240 | > 100 | 
9 | COc1ccc(N(c2ccc(OC)cc2)c2ccc(N(c3ccccc3)c3ccc(-c4ccc(N(c5ccccc5)c5ccc(N(c6ccc(OC)cc6)c6ccc(OC)cc6)cc5)cc4)cc3)cc2)cc1 [ID320] | 96 | 450 | 760 to 1000 (≈ 806 to 1060 mM) | 140 (≈ 148 mM) | > 280 | 280 (≈ 297 mM) | 
10 | COc1ccc(N(c2ccc(OC)cc2)c2ccc(-c3ccc(N(c4ccc(OC)cc4)c4ccc(-c5ccc(N(c6ccc(OC)cc6)c6ccc(-c7ccc(N(c8ccc(OC)cc8)c8ccc(OC)cc8)cc7)cc6)s5)s4)cc3)cc2)cc1 [ID575] | 110 | 440 | > 400 |  |  |  | 
11 | CCCCCCC1(CCCCCC)c2cc(N(c3ccc(OC)cc3)c3ccc(-c4ccc(N(c5ccc(OC)cc5)c5ccc(OC)cc5)cc4)cc3)ccc2-c2ccc(N(c3ccc(OC)cc3)c3ccc(-c4ccc(N(c5ccc(OC)cc5)c5ccc(OC)cc5)cc4)cc3)cc21 [ID450] | 105 | 420 | 900 to 1800 (≈ 674 to 1350 mM) |  |  |  | 
12 | COc1ccc(N(c2ccc(OC)cc2)c2ccc(-c3ccc(N(c4ccc(OC)cc4)c4ccc(N(c5ccc(OC)cc5)c5ccc(-c6ccc(N(c7ccc(OC)cc7)c7ccc(OC)cc7)cc6)cc5)cc4)cc3)cc2)cc1 [ID446] | 120 | 430 | 1250 to 2500 (≈ 1160 to 2320 mM) | 50 to 65 (≈ 46.3 to 60.2 mM) | 1000 to 2000 (≈ 927 to 1850 mM) | > 460 | 
13 | COc1ccc(N(c2ccc(C)cc2)c2ccc(-c3ccc(N(c4ccc(OC)cc4)c4ccc(-c5ccc(N(c6ccc(OC)cc6)c6ccc(-c7ccc(N(c8ccc(C)cc8)c8ccc(OC)cc8)cc7)cc6)cc5)cc4)cc3)cc2)cc1 [ID572] | 138 | 450 | > 900 | 60 to 100 (≈ 53.4 to 89 mM) | > 800 | > 500 | > 400
14 | CCN(CC)c1ccc(N(c2ccc(-c3ccc(N(c4ccc(OC)cc4)c4ccc(OC)cc4)cc3)cc2)c2ccc(-c3ccc(N(c4ccc(-c5ccc(N(c6ccc(OC)cc6)c6ccc(OC)cc6)cc5)cc4)c4ccc(N(CC)CC)cc4)cc3)cc2)cc1 [ID521] | 138 | 420 | 400 to 550 (≈ 323 to 444 mM) | 90 to 110 (≈ 72.7 to 88.9 mM) | 440 to 580 (≈ 356 to 469 mM) | 500 to 1000 (≈ 404 to 808 mM) | 
15 | COc1ccc(C(c2ccc(OC)cc2)c2ccc(N(c3ccc(OC)cc3)c3ccc(-c4ccc(N(c5ccc(OC)cc5)c5ccc(N(c6ccc(OC)cc6)c6ccc(OC)cc6)cc5)cc4)cc3)cc2)cc1 [ID480] | 105 | 430 | > 280 |  |  |  | 
16 | COc1ccc(N(c2ccc(-c3ccc(N(c4ccc(OC)cc4)c4ccc(-c5ccc(N(c6ccc(OC)cc6)c6ccc(C)c(C)c6)cc5)cc4)cc3)cc2)c2ccc(-c3ccc(N(c4ccc(OC)cc4)c4ccc(C)c(C)c4)cc3)cc2)cc1 [ID519] | 128 | 450 | 450 to 900 (≈ 391 to 782 mM) | > 460 | > 500 | 240 to 350 (≈ 208 to 304 mM) | 
17 | COc1ccc(N(c2ccc(-c3ccc(N(c4ccc(OC)cc4)c4ccc(-c5ccc(N(c6ccc(OC)cc6)c6ccc7c(c6)C(C)(C)c6ccccc6-7)cc5)cc4)cc3)cc2)c2ccc(-c3ccc(N(c4ccc(OC)cc4)c4ccc5c(c4)C(C)(C)c4ccccc4-5)cc3)cc2)cc1 [ID453] | 156 | 440 | 450 to 700 (≈ 339 to 527 mM) | 40 (≈ 30.1 mM) | 340 to 680 (≈ 256 to 512 mM) | 170 to 230 (≈ 128 to 173 mM) | 
18 | COc1ccc(N(c2ccc(OC)cc2)c2ccc(-c3ccc(N(c4ccc(OC)cc4)c4ccc(C5(c6ccc(N(c7ccc(OC)cc7)c7ccc(-c8ccc(N(c9ccc(OC)cc9)c9ccc(OC)cc9)cc8)cc7)cc6)CCCCC5)cc4)cc3)cc2)cc1 [ID452] | 123 | 450 | 650 to 1300 (≈ 525 to 1050 mM) |  | 300 to 600 (≈ 242 to 485 mM) | > 270 | 
19 | COc1ccc(N(c2ccc(N(c3ccccc3)c3ccc(N(c4ccccc4)c4ccc(N(c5ccc(OC)cc5)c5ccc6c(c5)C(C)(C)c5ccccc5-6)cc4)cc3)cc2)c2ccc3c(c2)C(C)(C)c2ccccc2-3)cc1 [ID366] | 127 | 460 | > 1100 | > 560 | > 440 | > 380 | 
20 | COc1ccc(N(c2ccc(OC)cc2)c2ccc(-c3ccc(N(c4ccc(OC)cc4)c4ccc5c(c4)C(C)(C)c4cc(N(c6ccc(OC)cc6)c6ccc(-c7ccc(N(c8ccc(OC)cc8)c8ccc(OC)cc8)cc7)cc6)ccc4-5)cc3)cc2)cc1 [ID447] | 137 | 430 | 900 to 1800 (≈ 753 to 1510 mM) | > 660 | 750 to 1500 (≈ 627 to 1250 mM) | > 520 | 
